Structures can show the parent of a compound that is named as a salt.
Target: T1, human NaPi-IIb (Homo sapiens, UniProt O95436)
T1 construct: expressed in transfected cells
T1 sequence (O95436 1-690): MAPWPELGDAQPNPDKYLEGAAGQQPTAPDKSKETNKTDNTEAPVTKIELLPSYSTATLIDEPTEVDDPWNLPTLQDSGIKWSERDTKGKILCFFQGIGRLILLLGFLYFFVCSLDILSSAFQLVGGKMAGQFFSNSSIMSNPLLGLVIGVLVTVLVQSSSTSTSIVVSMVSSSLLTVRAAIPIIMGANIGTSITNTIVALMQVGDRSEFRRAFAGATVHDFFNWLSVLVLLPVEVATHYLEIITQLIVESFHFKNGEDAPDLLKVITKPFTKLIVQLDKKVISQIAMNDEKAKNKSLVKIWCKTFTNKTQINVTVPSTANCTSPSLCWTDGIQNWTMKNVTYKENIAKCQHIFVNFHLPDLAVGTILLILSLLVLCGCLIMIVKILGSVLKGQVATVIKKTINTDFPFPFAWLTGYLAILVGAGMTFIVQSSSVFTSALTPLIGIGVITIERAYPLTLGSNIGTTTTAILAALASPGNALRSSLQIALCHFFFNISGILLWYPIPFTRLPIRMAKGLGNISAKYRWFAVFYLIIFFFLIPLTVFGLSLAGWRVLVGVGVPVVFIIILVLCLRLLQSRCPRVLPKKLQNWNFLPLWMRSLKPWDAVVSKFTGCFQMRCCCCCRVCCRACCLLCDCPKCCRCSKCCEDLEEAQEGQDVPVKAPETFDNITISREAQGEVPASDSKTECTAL
Assay: Inhibitory effect on 33PO4 uptake into human NaPi-IIb-expressing CHO cells
Format: cell-based
Conditions: read-out: IC50
Description: Test Example 2: Inhibitory Effect on PO4 Uptake into Human NaPi-IIb-Expressing Cell CHO cells were transfected with human NaPi-IIb expression plasmids, and a stably human NaPi-IIb-expressing cell line was obtained using G418. The human NaPi-IIb-expressing cells were inoculated to a 96-well plate and incubated overnight in a CO2 incubator. […] After a given time, a 1/20 volume of buffer A containing ^33PO4 was added thereto and reacted at room temperature. After washing with ice-cold buffer A, a liquid scintillator was added to each reaction mixture, and the amount of ^33PO4 uptake was measured using TopCount.

Q: Which IC50 does the source give for `C[C@]12CCCN1N(Cc1c(F)cc(C#CCCCCCOC[C@H](O)[C@@H](O)CO)cc1F)C(=O)C(C(=O)Nc1ccc(C(F)(F)F)cc1-c1ccc(C(F)(F)F)nc1)=C2O` [Example 124, (4aR)-1-[[2,6-Difluoro-4-[7-[(2S,3S)-2,3,4-trihydroxybutoxy]hept-1-ynil]phenyl]methyl]-4-hydroxy-4a-methyl-2-oxo-N-[4-(trifluoromethyl)-2-[6-(trifluoromethyl)pyridin-3-yl]phenyl]-6,7-dihydro-5H-pyrrolo[1,2-b]pyridazine-3-carboxamide] here?
A: Its IC50 is 2.5 µM.

Q: `C[C@]12CCCN1N(Cc1c(F)cc(CCCCCCCOC[C@H](O)[C@@H](O)CO)cc1F)C(=O)C(C(=O)Nc1ccc(C(F)(F)F)cc1-c1ccc(C(F)(F)F)nc1)=C2O` [Example 125] was tested. Which IC50 did it give?
A: The IC50 was 1.3 µM.

Q: How did the IC50 turn out when `C#Cc1ccc(CN2C(=O)C(C(=O)Nc3ccc(C(F)(F)F)cc3-c3cc(C(F)(F)F)ncn3)=C(O)[C@@]3(C)CCCN23)c(F)c1F` [Example 126, (4aR)-1-[(4-Ethynyl-2,3-difluorophenyl)methyl]-4-hydroxy-4a-methyl-2-oxo-N-[4-(trifluoromethyl)-2-[6-(trifluoromethyl)pyrimidin-4-yl]phenyl]-6,7-dihydro-5H-pyrrolo[1,2-b]pyridazine-3-carboxamide] was run?
A: The IC50 was 5.5 µM.

Q: With `COc1cccc(-c2cc(C(F)(F)F)ccc2NC(=O)C2=C(O)[C@@]3(C)CCCN3N(Cc3ccc(C#CCOCCCO)c(F)c3F)C2=O)c1OC` [Example 127] as the compound, how does the IC50 read?
A: Its IC50 is 17.6 µM.

Q: How did the IC50 turn out when `C[C@]12CCCN1N(Cc1ccc(C#CCOCCCCO)c(F)c1F)C(=O)C(C(=O)Nc1ccc(C(F)(F)F)cc1-c1ccc(C(F)(F)F)nc1)=C2O` [Example 128] was run?
A: The IC50 was 12 µM.

Q: `C[C@]12CCCN1N(Cc1c(F)cc(C#CC3(O)CCCC3)cc1F)C(=O)C(C(=O)Nc1ccc(C(F)(F)F)cc1-c1ccc(C(F)(F)F)nc1)=C2O` [Example 130] was tested. Which IC50 did it give?
A: Its IC50 is 8.9 µM.

Q: For `C[C@]12CCCN1N(Cc1ccc(C#CCN3CCCC3=O)c(F)c1F)C(=O)C(C(=O)Nc1ccc(Br)c(F)c1)=C2O` [Example 131], which IC50 is on record?
A: Its IC50 is 15.3 µM.

Q: Which IC50 does the source give for `C[C@]12CCCN1N(Cc1c(F)cc(C#CCN3CCOCC3)cc1F)C(=O)C(C(=O)Nc1ccc(C(F)(F)F)cc1-c1ccc(C(F)(F)F)nc1)=C2O` [Example 132] here?
A: The IC50 was 5 µM.

Q: For `C[C@]12CCCN1N(Cc1ccc(C#CCN3CCOCC3=O)c(F)c1F)C(=O)C(C(=O)Nc1ccc(Br)c(F)c1)=C2O` [Example 133], which IC50 is on record?
A: Its IC50 is 13.1 µM.

Q: `COc1cccc(-c2cc(C(F)(F)F)ccc2NC(=O)C2=C(O)[C@@]3(C)CCCN3N(Cc3ccc(C#CCCO)c(F)c3F)C2=O)c1OC` [Example 134] was tested. Which IC50 did it give?
A: Its IC50 is 19.7 µM.

Q: For `COc1cccc(-c2cc(C(F)(F)F)ccc2NC(=O)C2=C(O)[C@@]3(C)CCCN3N(Cc3ccc(C#CCCCCO)c(F)c3F)C2=O)c1OC` [Example 135], which IC50 is on record?
A: Its IC50 is 12.3 µM.

Q: How did the IC50 turn out when `COc1cccc(-c2cc(C(F)(F)F)ccc2NC(=O)C2=C(O)[C@@]3(C)CCCN3N(Cc3ccc(C#CCOCCOCCOCCO)c(F)c3F)C2=O)c1OC` [Example 136] was run?
A: Its IC50 is 17.6 µM.

Q: Which IC50 does the source give for `COc1cccc(-c2cc(C(F)(F)F)ccc2NC(=O)C2=C(O)[C@@]3(C)CCCN3N(Cc3ccc(C#CCOCCO)c(F)c3F)C2=O)c1OC` [Example 137] here?
A: Its IC50 is 19.7 µM.

Q: Which IC50 does the source give for `COc1cccc(-c2cc(C(F)(F)F)ccc2NC(=O)C2=C(O)[C@@]3(C)CCCN3N(Cc3ccc(C#CCCCO)c(F)c3F)C2=O)c1OC` [Example 138] here?
A: Its IC50 is 11.9 µM.

Q: With `COc1cccc(-c2cc(C(F)(F)F)ccc2NC(=O)C2=C(O)[C@@]3(C)CCCN3N(Cc3ccc(C#CCOCCOCCO)c(F)c3F)C2=O)c1OC` [Example 139] as the compound, how does the IC50 read?
A: The IC50 was 17 µM.

Q: How did the IC50 turn out when `C[C@]12CCCN1N(Cc1ccc(CCCOCCCO)c(F)c1F)C(=O)C(C(=O)Nc1ccc(C(F)(F)F)cc1-c1ccc(C(F)(F)F)nc1)=C2O` [Example 141] was run?
A: The IC50 was 7.8 µM.

Q: `COc1cccc(-c2cc(C(F)(F)F)ccc2NC(=O)C2=C(O)[C@@]3(C)CCCN3N(Cc3ccc(CCCOCCOCCOCCO)c(F)c3F)C2=O)c1OC` [Example 142] was tested. Which IC50 did it give?
A: The IC50 was 17.6 µM.

Q: With `C[C@]12CCCN1N(Cc1c(F)cc(C#CCCCCOC[C@H](O)CO)cc1F)C(=O)C(C(=O)Nc1ccc(C(F)(F)F)cc1-c1ccc(C(F)(F)F)nc1)=C2O` [Example 143] as the compound, how does the IC50 read?
A: The IC50 was 6.7 µM.

Q: `C[C@]12CCCN1N(Cc1c(F)cc(C#CCCOC[C@H](O)CO)cc1F)C(=O)C(C(=O)Nc1ccc(C(F)(F)F)cc1-c1ccc(C(F)(F)F)nc1)=C2O` [Example 145] was tested. Which IC50 did it give?
A: The IC50 was 7.1 µM.

Q: `C[C@]12CCCN1N(Cc1c(Cl)cc(OCCN3CCOCC3)cc1Cl)C(=O)C(C(=O)Nc1cnc(C(F)(F)F)nc1-c1ccc(C(F)(F)F)nc1)=C2O` [Example 146, (4aR)-1-[[2,6-Dichloro-4-(2-morpholin-4-ylethoxy)phenyl]methyl]-4-hydroxy-4a-methyl-2-oxo-N-[2-(trifluoromethyl)-4-[6-(trifluoromethyl)pyridin-3-yl]pyrimidin-5-yl]-6,7-dihydro-5H-pyrrolo[1,2-b]pyridazine-3-carboxamide hydrochloride] was tested. Which IC50 did it give?
A: Its IC50 is 10.2 µM.

Q: With `C[C@]12CCCN1N(Cc1c(Cl)cc(OCCN3CCOCC3)cc1Cl)C(=O)C(C(=O)Nc1ccc(C(F)(F)F)nc1-c1ccc(C(F)(F)F)nc1)=C2O` [Example 148, (4aR)-1-[[2,6-Dichloro-4-(2-morpholin-4-ylethoxy)phenyl]methyl]-4-hydroxy-4a-methyl-2-oxo-N-[6-(trifluoromethyl)-2-[6-(trifluoromethyl)pyridin-3-yl]pyridin-3-yl]-6,7-dihydro-5H-pyrrolo[1,2-b]pyridazine-3-carboxamide hydrochloride] as the compound, how does the IC50 read?
A: The IC50 was 8.5 µM.

Q: How did the IC50 turn out when `C[C@]12CCCN1N(Cc1ccc(OCCN3CCOCC3)c(Cl)c1)C(=O)C(C(=O)Nc1ccc(C(F)(F)F)cc1-c1ccc(C(F)(F)F)nc1)=C2O` [Example 149, (4aR)-1-[[3-Chloro-4-(2-morpholin-4-ylethoxy)phenyl]methyl]-4-hydroxy-4a-methyl-2-oxo-N-[4-(trifluoromethyl)-2-[6-(trifluoromethyl)pyridin-3-yl]phenyl]-6,7-dihydro-5H-pyrrolo[1,2-b]pyridazine-3-carboxamide] was run?
A: The IC50 was 19.7 µM.

Q: How did the IC50 turn out when `COC(=O)COc1ccc(CN2C(=O)C(C(=O)Nc3ccc(C(F)(F)F)cc3-c3ccc(C(F)(F)F)nc3)=C(O)[C@@]3(C)CCCN23)c(F)c1F` [Example 150] was run?
A: Its IC50 is 9 µM.

Q: How did the IC50 turn out when `COc1cccc(-c2cc(C(F)(F)F)ccc2NC(=O)C2=C(O)[C@@]3(C)CCCN3N(Cc3ccc(OCc4ccncc4)c(F)c3F)C2=O)c1OC` [Example 151, (4aR)-1-[[2,3-Difluoro-4-(pyridin-4-ylmethoxy)phenyl]methyl]-N-[2-(2,3-dimethoxyphenyl)-4-(trifluoromethyl)phenyl]-4-hydroxy-4a-methyl-2-oxo-6,7-dihydro-5H-pyrrolo[1,2-b]pyridazine-3-carboxamide] was run?
A: The IC50 was 8.4 µM.

Q: `C[C@]12CCCN1N(Cc1c(F)cc(OCCCCCOC[C@@H](O)CO)cc1F)C(=O)C(C(=O)Nc1ccc(C(F)(F)F)cc1-c1ccc(C(F)(F)F)nc1)=C2O` [Example 153] was tested. Which IC50 did it give?
A: The IC50 was 6.2 µM.

Q: How did the IC50 turn out when `C[C@]12CCCN1N(Cc1c(F)cc(OCCCCCCOC[C@@H](O)CO)cc1F)C(=O)C(C(=O)Nc1ccc(C(F)(F)F)cc1-c1ccc(C(F)(F)F)nc1)=C2O` [Example 154] was run?
A: The IC50 was 2.5 µM.

Q: `C[C@]12CCCN1N(Cc1c(F)cc(OCCCCCCOC[C@H](O)CO)cc1F)C(=O)C(C(=O)Nc1ccc(C(F)(F)F)cc1-c1ccc(C(F)(F)F)nc1)=C2O` [Example 155] was tested. Which IC50 did it give?
A: The IC50 was 2.3 µM.

Q: For `COc1cccc(-c2cc(C(F)(F)F)ccc2NC(=O)C2=C(O)[C@@]3(C)CCCN3N(Cc3ccc(OC4CCOCC4)c(F)c3F)C2=O)c1OC` [Example 158], which IC50 is on record?
A: Its IC50 is 12.8 µM.

Q: Which IC50 does the source give for `COc1cccc(-c2cc(C(F)(F)F)ccc2NC(=O)C2=C(O)[C@@]3(C)CCCN3N(Cc3ccc(OC[C@H]4CCCO4)c(F)c3F)C2=O)c1OC` [Example 159] here?
A: Its IC50 is 11.4 µM.

Q: With `C[C@]12CCCN1N(Cc1ccc(OC[C@H]3CCCO3)c(F)c1F)C(=O)C(C(=O)Nc1ccc(C(F)(F)F)cc1-c1ccc(C(F)(F)F)nc1)=C2O` [Example 160] as the compound, how does the IC50 read?
A: Its IC50 is 7.3 µM.

Q: For `C[C@]12CCCN1N(Cc1ccc(OCCN3CCOCC3)c(F)c1F)C(=O)C(C(=O)Nc1ccc(C(F)(F)F)cc1-c1ccc(C(F)(F)F)nc1)=C2O` [Example 161], which IC50 is on record?
A: Its IC50 is 11.5 µM.

Q: For `C[C@]12CCCN1N(Cc1ccc(OCCCCCO)c(F)c1F)C(=O)C(C(=O)Nc1ccc(C(F)(F)F)cc1-c1cc(C(F)(F)F)ncn1)=C2O` [Example 162], which IC50 is on record?
A: Its IC50 is 15.1 µM.

Q: With `C[C@]12CCCN1N(Cc1ccc(SCCN3CCOCC3)c(F)c1F)C(=O)C(C(=O)Nc1ccc(C(F)(F)F)cc1-c1ccc(C(F)(F)F)nc1)=C2O` [Example 163, (4aR)-1-[[2,3-Difluoro-4-(2-morpholin-4-ylethylsulfanyl)phenyl]methyl]-4-hydroxy-4a-methyl-2-oxo-N-[4-(trifluoromethyl)-2-[6-(trifluoromethyl)pyridin-3-yl]phenyl]-6,7-dihydro-5H-pyrrolo[1,2-b]pyridazine-3-carboxamide hydrochloride] as the compound, how does the IC50 read?
A: The IC50 was 6.8 µM.

From patent US9499553B2 (CHUGAI SEIYAKU KABUSHIKI KAISHA, priority 2013, dated 2016)
